What was measured:
topoisomerase I (TOPI) = experiment: Western blot for TOPI expression; format: cell-based, human; details: BJ primary cells
Excerpt: (A-C) Western blot of lysates from BJ, BJ-TERT, BJ-TERT/LT/ST, BJ-TERT/LT/ST/RAS^V12, BJ-TERT/LT/RAS^V12 and BJ-TERT/LT/RAS^V12/ST cells with an antibody directed against topoisomerase II (A) or TOPI (B, C). In panel (C), cells were transfected with an siRNA directed against TOPI, lamic A/C or with a control double strand DNA duplex of the same length (TOPI dsDNA). In each case, the blot was probed with an antibody against eIF-4E to identify differences in the amount of protein loaded. The relative amount is quantitated below each band. […] Cell number was determined after transfection with an siRNA directed against TOPI and treatment with the indicated concentrations of camptothecin. (E) Okadaic acid, an inhibitor of PP2A and other cellular phosphatases, sensitizes primary human cells to camptothecin. BJ primary cells were treated simultaneously with the indicated concentrations of both camptothecin and okadaic acid and the effect on calcein AM viability staining was determined. […] BJ primary cells were treated with the indicated concentrations of okadaic acid and the expression level of TOPI was determined by western blot. The relative amount is quantitated below each band. […]

BJ primary cells = experiment: Sensitization of primary cells by co-treatment, calcein AM viability staining; format: cell-based, human; details: for effect on calcein AM viability staining, alone: BJ primary cells
Excerpt: (A-C) Western blot of lysates from BJ, BJ-TERT, BJ-TERT/LT/ST, BJ-TERT/LT/ST/RAS^V12, BJ-TERT/LT/RAS^V12 and BJ-TERT/LT/RAS^V12/ST cells with an antibody directed against topoisomerase II (A) or TOPI (B, C). In panel (C), cells were transfected with an siRNA directed against TOPI, lamic A/C or with a control double strand DNA duplex of the same length (TOPI dsDNA). In each case, the blot was probed with an antibody against eIF-4E to identify differences in the amount of protein loaded. The relative amount is quantitated below each band. […] Cell number was determined after transfection with an siRNA directed against TOPI and treatment with the indicated concentrations of camptothecin. (E) Okadaic acid, an inhibitor of PP2A and other cellular phosphatases, sensitizes primary human cells to camptothecin. BJ primary cells were treated simultaneously with the indicated concentrations of both camptothecin and okadaic acid and the effect on calcein AM viability staining was determined. […] BJ primary cells were treated with the indicated concentrations of okadaic acid and the expression level of TOPI was determined by western blot. The relative amount is quantitated below each band.
The compounds in group (iii) are camptothecin (CPT) and a novel compound from a combinatorial library, which Applicants have named erastin, for eradicator of RAS and ST-expressing cells (FIG. 2). Efficient CPT-induced and erastin-induced cell death requires the presence of both ST and RAS^V12 (FIGS. 3 and 4 and Table 1). Although CPT and erastin have a similar genetic basis of selectivity, they have distinct mechanisms of action. […] The phosphatase inhibitor okadaic acid was capable of sensitizing otherwise resistant BJ primary cells to CPT (FIG. 5E), possibly because okadaic acid upregulates TOPI (FIG. 5F).

[1] = tested on: BJELR cells (BJ-TERT/LT/ST/RAS^V12) versus BJEH cells (BJ-TERT); experiment: Erastin analogs: activity and selectivity in tumor cells versus normal cells; format: cell-based, human
Excerpt: Applicants additionally tested 135 analogs of erastin for activity and selectivity in tumor cells versus normal cells. […] This compound was named erastin B (see FIG. 8). […] BJELR cells are BJ-TERT/LT/ST/RAS^V12 cells, and BJEH are BJ-TERT cells.

[2] = tested on: BJELR cells (BJ-TERT/LT/ST/RAS^V12); experiment: Screen of ACL library for suppressors of erastin activity (calcein AM); format: cell-based, human; details: 4 μg/ml compound, 5 μg/ml erastin
Protocol: ACL library comprises 1,540 compounds and all compounds were prepared in DMSO at […] in 384-well polypropylene plates and stored at −20° C. Replica daughter plates for each library plate were prepared using Zymark Scilone ALH. The daughter plates were diluted 50 fold in DMEM and compound concentration in the daughter plate is 80 μg/ml with 2% DMSO. In assay plate compound from the daughter plate is diluted 20 fold with cell suspension, thus final concentration of each compound is 4 μg/ml.
BJELR cells were seeded at 6000 cells/well (57μl) (for co-treatment screen) and 5000 cells/well (57 μl) (for pretreatment screen) in 384-well black, clear bottom plates using syringe bulk dispenser. For co-treatment suppressor screen, cells were treated with 3 μl of compound from the daughter plates of ACL library (final concentration in assay plate at 4 μg/ml) and at the same time treated with 5 μg/ml of erastin. Compound transfer was done using 384 fixed cannula head. Plates were incubated for 48 hours at 37° C. in incubator with 5% CO2. For the pretreatment screens, cells were pre-incubated with the compound from ACL daughter library plate for overnight and then treated with 5 μg/ml of erastin for further 48 hours. […] Fluorescence intensity was determined using Fusion platereader with filters centered in an excitation of 485 nm and emission of 535 nm. […]

[3] = tested on: PC12 cells expressing Htt-Q103; experiment: PC12 Htt-Q103 toxicity assay, Alamar Blue viability; format: cell-based, rat; design: rescue of Htt-Q103 toxicity: dose or concentration left out as unconfirmed
Excerpt: In the first cell system, Applicants developed, in collaboration with Dr. Erik Schweitzer (UCLA), a high-throughput screen (HTS) for compounds that rescue polyQ-induced apoptosis in immortalized rat neuronal cells (Suhr S T, et al., Proc Natl Acad Sci U S A 1998, 95: 7999-8004). PC12 rat pheochromocytoma cells were transfected with exon-1 of the human huntingtin gene containing either 25 or 103 N-terminal polyQ repeats. For enhanced stability the repeat portion consists of alternating CAG/CAA repeats (FIG. 11A). In addition, the expression construct incorporates enhanced green fluorescent protein (EGFP) as a reporter that enables tracking of the fusion proteins by direct immunofluorescence microscopy or biochemical (immunoprecipitation or Western blotting) detection with anti-EGFP antibodies (Schweitzer E S, et al., submitted). Finally, expression is regulated using the Bombyx mori ecdysone receptor and ecdysone analog, tebufenozide (Suhr S T, et al., Proc Natl Acad Sci U S A 1998, 95: 7999-8004). […]
The high-throughput screen developed by Applicants using the PC12 cell system uses the fluorescent viability dye Alamar Blue™ (FIG. 11B). […] The Z-factor is a commonly used quantitative index for maximal signal separation and minimal variability. […]

**Q.** With C=C1[C@@H](O)[C@@H]2O[C@]3(CC[C@H](/C=C/[C@@H](C)[C@@H]4CC(C)=C[C@@]5(O[C@H](C[C@@](C)(O)C(=O)O)CC[C@H]5O)O4)O3)CC[C@H]2O[C@@H]1[C@@H](O)C[C@H](C)[C@H]1O[C@@]2(CCCCO2)CC[C@H]1C [okadaic acid] as the compound, how does the “expression of TOPI (western blot)” value (topoisomerase I (TOPI)) read?
**A.** Its value is “stimulates expression of TOPI”.

**Q.** What about the “sensitization of cells to camptothecin” value (BJ primary cells; BJ (or BJ-TERT) cells, simultaneous treatment) of the same compound?
**A.** Its value is “renders BJ cells sensitive to camptothecin”.

**Q.** What about the “sensitization of cells to erastin” value (BJ primary cells; BJ or BJ-TERT cells) of the same compound?
**A.** Its value is “does not render BJ or BJ-TERT cells sensitive to erastin”.

**Q.** What about the “effect on calcein AM viability staining, alone” value (BJ primary cells; 3.4 nM) of the same compound?
**A.** Its value is “no effect on its own”.

**Q.** And the “effect on calcein AM viability staining, alone” value (BJ primary cells; highest concentrations tested)?
**A.** The value was “kills BJ cells”.

**Q.** With erastin B as the compound, how does the “activity and selectivity in tumor cells versus normal cells” value [1] read?
**A.** Its value is “active and selective, but less potent than erastin”.

**Q.** With Cc1c(C)c2c(c(C)c1O)CC[C@@](C)(CCC[C@H](C)CCC[C@H](C)CCCC(C)C)O2 [α-tocopherol] as the compound, how does the “suppression of erastin activity” value [2] read?
**A.** Its value is “suppress erastin activity”.

**Q.** With COC(=O)CC(NC(=O)OC(C)(C)C)C(=O)CF [BOC-D-FMK, Boc-Asp(Ome)-fluoromethyl ketone] as the compound, how does the “rescue of the Htt-Q103-induced cytotoxicity” value ([3]; 50 μM, added at the time of tebufenozide induction) read?
**A.** Its value is ≥ 100%.

**Q.** What about the “rescue of Htt-Q103 toxicity” value ([3]; 72 hour induction with tebufenozide) of the same compound?
**A.** The value was “rescues Htt-Q103 toxicity”.

Reference: patent US20050032124A1, “Identification of genotype-selective agents for treating Huntington's disease” (priority 2003, published 2005)
